{"source": "patent CN104352465A", "about": "“一种不含二氧化硅的琥珀酸普芦卡必利药物组合物及其制备方法” (CHENGDU SINO-STRONG PHARMACEUTICAL Co Ltd, priority 2014, dated 2015)", "origin": "cited, not measured here", "details": "within shelf life, with the diluent lactose monohydrate", "data": [{"smiles": "COCCCN1CCC(NC(=O)c2cc(Cl)c(N)c3c2OCC3)CC1.O=C(O)CCC(=O)O", "note": "[琥珀酸普芦卡必利, 4-氨基-5-氯-2,3-二氢-N-[1-(3-甲氧基丙基)-4-哌啶基]-7-苯并呋喃甲酰胺丁二酸盐]", "values": [{"measurement": "adduct formation with lactose monohydrate", "value": "形成乳糖加合物"}]}]}
